The results in this text go back to US11208400B2, “Substituted 6-(1H-pyrazol-1-yl)pyrimidin-4-amine derivatives and uses thereof” (Bayer Aktiengesellschaft, priority 2016, dated 2021).

The test has as its target T1, human Npt2a (Homo sapiens, UniProt Q06495).
T1 construct: expressed in transfected cells
T1 sequence (Q06495 1-639): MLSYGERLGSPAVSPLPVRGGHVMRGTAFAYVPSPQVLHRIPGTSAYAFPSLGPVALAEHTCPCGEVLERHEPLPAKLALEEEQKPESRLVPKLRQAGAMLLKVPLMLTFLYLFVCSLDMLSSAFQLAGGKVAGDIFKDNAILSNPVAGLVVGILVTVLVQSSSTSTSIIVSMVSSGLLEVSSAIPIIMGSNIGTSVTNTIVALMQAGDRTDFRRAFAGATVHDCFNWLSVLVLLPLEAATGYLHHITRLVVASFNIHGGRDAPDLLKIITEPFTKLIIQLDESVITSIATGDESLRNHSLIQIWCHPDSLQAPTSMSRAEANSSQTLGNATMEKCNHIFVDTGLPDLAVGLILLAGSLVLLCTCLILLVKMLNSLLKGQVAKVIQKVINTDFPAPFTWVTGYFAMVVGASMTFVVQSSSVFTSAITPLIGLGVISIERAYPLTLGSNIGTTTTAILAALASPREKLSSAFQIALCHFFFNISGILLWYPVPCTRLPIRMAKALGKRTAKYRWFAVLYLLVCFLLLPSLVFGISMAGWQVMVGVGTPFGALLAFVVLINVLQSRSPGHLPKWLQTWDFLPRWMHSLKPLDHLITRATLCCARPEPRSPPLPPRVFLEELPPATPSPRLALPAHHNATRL
The experiment in a line: Npt2a activity cell based assay, membrane potential dye, CHO T-REx hNpt2a cells. Particulars: doxycycline-induced, depolarization by sodium phosphate influx, average or median values if tested more than once. The procedure, abridged: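 Cells were doxycycline-induced CHO T-REx hNpt2a, dye-loaded and pretreated 5 min at RT with 1 nM–50 μM compound in Na-free pH 7.4 buffer. IC50 was fit to the post/pre-trigger fluorescence ratio.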
The term IC50 denotes the point on the concentration scale where inhibition reaches its midpoint. The low end stands for higher potency, the high end for lower potency. As to `CCc1c(Nc2cc(-n3ncc4c3CCC4)ncn2)n[nH]c1-c1ccc(F)cc1` [Example 27, 6-(5,6-dihydrocyclopenta[c]pyrazol-1 (4H)-yl)-N-[4-ethyl-5-(4-fluorophenyl)-1H-pyrazol-3-yl]pyrimidin-4-amine], the midpoint of inhibition, the IC50, lay at 0.46 µM.
`CCc1c(Nc2cc(-n3nc(C)cc3C)ncn2)n[nH]c1C1CCCCC1` [Example 28, N-(5-cyclohexyl-4-ethyl-1H-pyrazol-3-yl)-6-(3,5-dimethyl-1H-pyrazol-1-yl)pyrimidin-4-amine] gave an IC50 of 0.49 µM.
Under `CCc1c(Nc2cc(-n3nc4c(c3O)CCCC4)ncn2)nn(C)c1-c1ccc(F)cc1` [Example 29, 2-(6-{[4-ethyl-5-(4-fluorophenyl)-1-methyl-1H-pyrazol-3-yl]amino}pyrimidin-4-yl)-4,5,6,7-tetrahydro-2H-indazol-3-ol] stands 1.42 µM; under `CCc1c(Nc2cc(-n3nc4c(c3O)CCCC4)ncn2)n[nH]c1-c1ccc(F)cc1` [Example 30, 2-(6-{[4-ethyl-5-(4-fluorophenyl)-1H-pyrazol-3-yl]amino}pyrimidin-4-yl)-4,5,6,7-tetrahydro-2H-indazol-3-ol], 0.62 µM; under `CCc1c(Nc2cc(-n3nc(C)cc3C)ncn2)nn(CCOCc2ccccc2)c1-c1ccc(F)cc1` [Example 31, N-{1-[2-(benzyloxy)ethyl]-4-ethyl-5-(4-fluorophenyl)-1H-pyrazol-3-yl}-6-(3,5-dimethyl-1H-pyrazol-1-yl)pyrimidin-4-amine], 0.67 µM.
`CCc1c(-c2ccc(F)cc2)nn(CCOCc2ccccc2)c1Nc1cc(-n2nc(C)cc2C)ncn1` [Example 32, N-{1-[2-(benzyloxy)ethyl]-4-ethyl-3-(4-fluorophenyl)-1H-pyrazol-5-yl}-6-(3,5-dimethyl-1H-pyrazol-1-yl)pyrimidin-4-amine] yielded an IC50 of 0.69 µM.
In turn, `CCc1c(Nc2cc(-n3ncc4c3CCN(C(=O)OC(C)(C)C)C4)ncn2)n[nH]c1-c1ccc(F)cc1` [Example 33, tert-butyl 1-(6-{[4-ethyl-5-(4-fluorophenyl)-1H-pyrazol-3-yl]amino}pyrimidin-4-yl)-1,4,6,7-tetrahydro-5H-pyrazolo[4,3-c]pyridine-5-carboxylate] registered an IC50 of 1 µM.
`CCc1c(Nc2cc(-n3nc(C)c(C)c3O)ncn2)n[nH]c1-c1ccc(F)cc1` [Example 34, 1-(6-{[4-ethyl-5-(4-fluorophenyl)-1H-pyrazol-3-yl]amino}pyrimidin-4-yl)-3,4-dimethyl-1H-pyrazol-5-ol]: the IC50 worked out at 1 µM.
`CCc1nn(C)c(Nc2cc(-n3nc(C)cc3C)ncn2)c1-c1ccc(F)cc1` [Example 35, 6-(3,5-dimethyl-1H-pyrazol-1-yl)-N-[3-ethyl-4-(4-fluorophenyl)-1-methyl-1H-pyrazol-5-yl]pyrimidin-4-amine] gave an IC50 of 1.4 µM.
Take `Cc1cc(C)n(-c2cc(Nc3[nH]nc(-c4ccc(F)cc4)c3CC(F)(F)F)ncn2)n1` [Example 36, 6-(3,5-dimethyl-1H-pyrazol-1-yl)-N-[3-(4-fluorophenyl)-4-(2,2,2-trifluoroethyl)-1H-pyrazol-5-yl]pyrimidin-4-amine]: it took 1.7 µM to reach half-maximal inhibition (IC50).
In the case of `CCc1c(Nc2cc(-n3ncc4c3CN(C(=O)OC(C)(C)C)C4)ncn2)n[nH]c1-c1ccc(F)cc1` [Example 37, tert-butyl 1-(6-{[4-ethyl-5-(4-fluorophenyl)-1H-pyrazol-3-yl]amino}pyrimidin-4-yl)-4,6-dihydropyrrolo[3,4-c]pyrazole-5(1H)-carboxylate] it was 1.7 µM; in that of `COCCc1c(Nc2cc(-n3nc(C)cc3C)ncn2)n[nH]c1-c1ccc(F)cc1` [Example 38, 6-(3,5-dimethyl-1H-pyrazol-1-yl)-N-[5-(4-fluorophenyl)-4-(2-methoxyethyl)-1H-pyrazol-3-yl]pyrimidin-4-amine], 2.35 µM; in that of `CCOc1ccc(-c2n[nH]c(Nc3cc(-n4nc(C)cc4C)ncn3)c2Cl)cc1` [Example 39, N-[4-chloro-3-(4-ethoxyphenyl)-1H-pyrazol-5-yl]-6-(3,5-dimethyl-1H-pyrazol-1-yl)pyrimidin-4-amine], 0.0032 µM.
Regarding `CCOC(=O)c1c(C)nn(-c2cc(Nc3nn(C)c(-c4ccc(F)cc4)c3CC)ncn2)c1C` [Example 40, ethyl 1-(6-{[4-ethyl-5-(4-fluorophenyl)-1-methyl-1H-pyrazol-3-yl]amino}pyrimidin-4-yl)-3,5-dimethyl-1H-pyrazole-4-carboxylate], the IC50 turned out to be 2.76 µM.
As for `Cc1cc(C)n(-c2cc(Nc3nn(C)c(-c4ccc(F)cc4)c3C3CC3)ncn2)n1` [Example 41, N-[4-cyclopropyl-5-(4-fluorophenyl)-1-methyl-1H-pyrazol-3-yl]-6-(3,5-dimethyl-1H-pyrazol-1-yl)pyrimidin-4-amine], it took 0.011 µM to reach half-maximal inhibition (IC50).
Molecule `Cc1nn(-c2cc(Nc3nn(C)c(-c4ccc(F)cc4)c3C3CC3)ncn2)c(C)c1Cl` [Example 42, 6-(4-chloro-3,5-dimethyl-1H-pyrazol-1-yl)-N-[4-cyclopropyl-5-(4-fluorophenyl)-1-methyl-1H-pyrazol-3-yl]pyrimidin-4-amine] registered an IC50 of 0.00767 µM.
Take `Cc1cc(C)n(-c2cc(Nc3c(C4CC4)c(-c4ccc(F)cc4)nn3C)ncn2)n1` [Example 43, N-[4-cyclopropyl-3-(4-fluorophenyl)-1-methyl-1H-pyrazol-5-yl]-6-(3,5-dimethyl-1H-pyrazol-1-yl)pyrimidin-4-amine]: the IC50 was 0.144 µM.
Regarding `Cc1nn(-c2cc(Nc3nn(C)c(-c4ccc(F)cc4)c3C3CC3)ncn2)c2ccccc12` [Example 44, N-[4-cyclopropyl-5-(4-fluorophenyl)-1-methyl-1H-pyrazol-3-yl]-6-(3-methyl-1H-indazol-1-yl)pyrimidin-4-amine], 0.00535 µM corresponded to half-maximal inhibition (IC50).
Take `Cc1nn(-c2cc(Nc3c(C4CC4)c(-c4ccc(F)cc4)nn3C)ncn2)c(C)c1Cl` [Example 45, 6-(4-chloro-3,5-dimethyl-1H-pyrazol-1-yl)-N-[4-cyclopropyl-3-(4-fluorophenyl)-1-methyl-1H-pyrazol-5-yl]pyrimidin-4-amine]: the midpoint of inhibition, the IC50, lay at 0.029 µM.
`CCc1c(Nc2cc(-n3nc4c(c3C)CCCC4)ncn2)nn(C)c1-c1ccc(F)cc1` [Example 46, N-[4-ethyl-5-(4-fluorophenyl)-1-methyl-1H-pyrazol-3-yl]-6-(3-methyl-4,5,6,7-tetrahydro-2H-indazol-2-yl)pyrimidin-4-amine] registered an IC50 of 0.0065 µM.
Regarding `Cc1nn(-c2cc(Nc3c(C4CC4)c(-c4ccc(F)cc4)nn3C)ncn2)c2ccccc12` [Example 47, N-[4-cyclopropyl-3-(4-fluorophenyl)-1-methyl-1H-pyrazol-5-yl]-6-(3-methyl-1H-indazol-1-yl)pyrimidin-4-amine], the IC50 came out at 0.089 µM.
Under `Cc1nn(-c2cc(Nc3c(Cl)c(-c4ccc(F)cc4F)nn3C)ncn2)c(C)c1Cl` [Example 48, N-[4-chloro-3-(2,4-difluorophenyl)-1-methyl-1H-pyrazol-5-yl]-6-(4-chloro-3,5-dimethyl-1H-pyrazol-1-yl)pyrimidin-4-amine] stands 0.31 µM.
`Cc1nn(-c2cc(Nc3c(Cl)c(-c4ccc(F)cc4F)nn3C)ncn2)c2ccccc12` [Example 49, N-[4-chloro-3-(2,4-difluorophenyl)-1-methyl-1H-pyrazol-5-yl]-6-(3-methyl-1H-indazol-1-yl)pyrimidin-4-amine] had an IC50 of 0.31 µM.
In the case of `Cc1cc(C)n(-c2cc(Nc3c(Cl)c(-c4ccc(F)cc4F)nn3C)ncn2)n1` [Example 50, N-[4-chloro-3-(2,4-difluorophenyl)-1-methyl-1H-pyrazol-5-yl]-6-(3,5-dimethyl-1H-pyrazol-1-yl)pyrimidin-4-amine] it was 0.16 µM; in that of `CCOC(=O)c1c(C)nn(-c2cc(Nc3n[nH]c(-c4ccccc4)c3Cl)ncn2)c1C` [Example 51, ethyl 1-{6-[(4-chloro-5-phenyl-1H-pyrazol-3-yl)amino]pyrimidin-4-yl}-3,5-dimethyl-1H-pyrazole-4-carboxylate], 0.1 µM.
The molecule `Cc1cc(C)n(-c2cc(Nc3nn(C)c(-c4ccccc4)c3Cl)ncn2)n1` [Example 52, N-(4-chloro-1-methyl-5-phenyl-1H-pyrazol-3-yl)-6-(3,5-dimethyl-1H-pyrazol-1-yl)pyrimidin-4-amine] yielded an IC50 of 0.083 µM.
In the case of `Cc1nn(-c2cc(Nc3nn(C)c(-c4ccccc4)c3Cl)ncn2)c(C)c1Cl` [Example 53, 6-(4-chloro-3,5-dimethyl-1H-pyrazol-1-yl)-N-(4-chloro-1-methyl-5-phenyl-1H-pyrazol-3-yl)pyrimidin-4-amine] it was 0.0113 µM; in that of `Cc1nn(-c2cc(Nc3n[nH]c(-c4ccccc4)c3Cl)ncn2)c(C)c1Cl` [Example 54, 6-(4-chloro-3,5-dimethyl-1H-pyrazol-1-yl)-N-(4-chloro-5-phenyl-1H-pyrazol-3-yl)pyrimidin-4-amine], 0.0903 µM.
In turn, `Cc1cc(C)n(-c2cc(Nc3nn(C)c(-c4ccc(F)cc4F)c3Cl)ncn2)n1` [Example 55, N-[4-chloro-5-(2,4-difluorophenyl)-1-methyl-1H-pyrazol-3-yl]-6-(3,5-dimethyl-1H-pyrazol-1-yl)pyrimidin-4-amine] registered an IC50 of 0.133 µM.
